Tests used:
Glucocorticoid receptor [1] = target: T1, Glucocorticoid receptor (Homo sapiens, UniProt P04150); experiment: Displacement of [3H]dexamethasone from human recombinant GR
T1 sequence (P04150 whole entry): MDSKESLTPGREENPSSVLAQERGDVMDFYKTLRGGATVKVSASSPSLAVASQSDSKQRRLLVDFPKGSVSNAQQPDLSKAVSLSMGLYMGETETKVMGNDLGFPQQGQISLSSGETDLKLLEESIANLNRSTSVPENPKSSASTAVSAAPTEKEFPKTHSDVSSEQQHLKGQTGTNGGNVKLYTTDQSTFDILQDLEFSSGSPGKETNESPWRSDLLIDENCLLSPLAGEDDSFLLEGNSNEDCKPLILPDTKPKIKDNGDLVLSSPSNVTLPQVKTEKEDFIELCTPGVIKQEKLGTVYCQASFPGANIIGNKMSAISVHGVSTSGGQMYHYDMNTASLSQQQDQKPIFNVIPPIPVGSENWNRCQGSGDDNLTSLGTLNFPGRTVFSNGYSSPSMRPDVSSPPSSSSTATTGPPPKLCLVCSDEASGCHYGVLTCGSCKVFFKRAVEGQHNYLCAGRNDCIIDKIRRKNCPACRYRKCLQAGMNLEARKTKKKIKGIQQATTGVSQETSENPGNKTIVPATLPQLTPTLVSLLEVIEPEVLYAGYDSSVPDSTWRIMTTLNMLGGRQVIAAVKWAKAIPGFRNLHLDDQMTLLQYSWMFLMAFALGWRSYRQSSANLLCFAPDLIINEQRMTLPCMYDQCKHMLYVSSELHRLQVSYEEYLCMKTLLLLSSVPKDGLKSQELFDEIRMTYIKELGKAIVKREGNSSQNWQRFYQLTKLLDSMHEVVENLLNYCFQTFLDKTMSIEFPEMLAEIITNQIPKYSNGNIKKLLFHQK

[2] = target: T2, Mineralocorticoid receptor (Homo sapiens, UniProt P08235); experiment: biochemical
T2 sequence (P08235 whole entry): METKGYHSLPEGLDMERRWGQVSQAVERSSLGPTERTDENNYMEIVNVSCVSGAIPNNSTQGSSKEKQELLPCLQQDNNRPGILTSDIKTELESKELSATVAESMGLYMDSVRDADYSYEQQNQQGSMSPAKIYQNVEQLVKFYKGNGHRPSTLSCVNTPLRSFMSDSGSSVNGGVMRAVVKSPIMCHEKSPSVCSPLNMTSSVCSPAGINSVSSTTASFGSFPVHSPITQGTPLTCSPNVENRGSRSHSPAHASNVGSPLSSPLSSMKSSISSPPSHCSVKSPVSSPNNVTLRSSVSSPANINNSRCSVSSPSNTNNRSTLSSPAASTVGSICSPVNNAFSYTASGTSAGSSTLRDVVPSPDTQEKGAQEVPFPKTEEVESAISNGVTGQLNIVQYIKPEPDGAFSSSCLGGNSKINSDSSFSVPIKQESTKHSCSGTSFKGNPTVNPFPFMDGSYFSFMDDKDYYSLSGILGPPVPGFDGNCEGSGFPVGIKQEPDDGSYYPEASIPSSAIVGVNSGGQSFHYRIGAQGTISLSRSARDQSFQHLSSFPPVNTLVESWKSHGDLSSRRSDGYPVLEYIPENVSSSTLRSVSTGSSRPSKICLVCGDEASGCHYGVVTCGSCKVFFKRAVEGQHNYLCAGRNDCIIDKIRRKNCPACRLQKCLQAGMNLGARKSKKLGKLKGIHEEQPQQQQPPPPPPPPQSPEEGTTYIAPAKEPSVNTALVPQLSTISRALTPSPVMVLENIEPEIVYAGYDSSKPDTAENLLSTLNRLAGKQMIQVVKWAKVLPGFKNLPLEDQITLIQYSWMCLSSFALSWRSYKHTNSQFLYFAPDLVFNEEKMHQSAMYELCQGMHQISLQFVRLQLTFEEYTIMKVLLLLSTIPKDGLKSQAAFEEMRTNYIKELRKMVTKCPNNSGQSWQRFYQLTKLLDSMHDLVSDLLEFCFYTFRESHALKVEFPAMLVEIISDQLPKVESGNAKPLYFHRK
Description: Displacement of [3H]aldosterone from mineralocorticoid receptor expressed in Sf9 cells

Glucocorticoid receptor [3] = target: T1, Glucocorticoid receptor; experiment: Antagonist activity at human GR; format: functional
[4] = target: T3, Glucocorticoid receptor (Homo sapiens) (UniProt P04150); experiment: Displacement of [3H]dexamethasone from glucocorticoid receptor at 1 uM
T3 sequence (whole entry): T1 sequence (P04150 whole entry)

Progesterone receptor = target: T4, Progesterone receptor (Homo sapiens, UniProt P06401); experiment: Displacement of [3H]progesterone from progesterone receptor
T4 sequence (P06401 whole entry): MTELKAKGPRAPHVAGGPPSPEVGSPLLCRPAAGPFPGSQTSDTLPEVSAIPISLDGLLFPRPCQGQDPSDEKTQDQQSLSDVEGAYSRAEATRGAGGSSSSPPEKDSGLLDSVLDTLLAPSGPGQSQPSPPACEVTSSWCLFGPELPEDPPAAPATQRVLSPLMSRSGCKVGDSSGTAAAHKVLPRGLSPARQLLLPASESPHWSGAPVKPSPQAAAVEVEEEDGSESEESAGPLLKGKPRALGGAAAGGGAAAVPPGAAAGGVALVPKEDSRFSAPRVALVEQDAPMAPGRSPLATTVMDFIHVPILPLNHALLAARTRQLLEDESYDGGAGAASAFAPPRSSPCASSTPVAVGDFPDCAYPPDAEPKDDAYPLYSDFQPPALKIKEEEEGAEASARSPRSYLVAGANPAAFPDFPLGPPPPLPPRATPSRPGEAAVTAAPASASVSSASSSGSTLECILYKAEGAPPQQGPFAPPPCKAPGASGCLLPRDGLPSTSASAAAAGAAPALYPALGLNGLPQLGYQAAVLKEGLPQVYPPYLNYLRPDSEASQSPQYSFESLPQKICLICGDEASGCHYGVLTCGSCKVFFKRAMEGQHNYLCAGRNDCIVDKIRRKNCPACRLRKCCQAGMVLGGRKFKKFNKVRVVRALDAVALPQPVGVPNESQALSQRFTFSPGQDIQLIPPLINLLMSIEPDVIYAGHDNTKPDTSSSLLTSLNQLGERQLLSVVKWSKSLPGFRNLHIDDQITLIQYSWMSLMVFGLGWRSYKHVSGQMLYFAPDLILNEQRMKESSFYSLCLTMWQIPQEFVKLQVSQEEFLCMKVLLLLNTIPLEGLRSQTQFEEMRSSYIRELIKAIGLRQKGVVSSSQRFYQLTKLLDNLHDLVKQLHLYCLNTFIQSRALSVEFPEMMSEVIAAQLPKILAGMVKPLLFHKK

[5] = Metabolic stability in human […] S9 fraction after 30 mins; format: ADME; settings: read-out: Stability
Plasma = experiment: Drug lavel in rat plasma at 1 mg/kg, iv; format: ADME, organism-based; parameters: dose 1 mg/kg, route intravenous; settings: in vivo
CYP3A4 = CYP3A4 (Homo sapiens, UniProt P08684); experiment: Inhibition of CYP3A4 at 1 uM; format: ADME
[6] = Cmax in rat at 5 mg/kg, po; format: ADME, organism-based; parameters: dose 5 mg/kg, route oral; settings: in vivo
[7] = AUC in rat at 5 mg/kg, po; format: ADME, organism-based; parameters: dose 5 mg/kg, route oral; settings: plasma
Brain = experiment: Drug level in rat brain at 1 mg/kg, iv; format: ADME, organism-based; parameters: dose 1 mg/kg, route intravenous; settings: in vivo

Sequence of CYP3A4 (P08684 whole entry): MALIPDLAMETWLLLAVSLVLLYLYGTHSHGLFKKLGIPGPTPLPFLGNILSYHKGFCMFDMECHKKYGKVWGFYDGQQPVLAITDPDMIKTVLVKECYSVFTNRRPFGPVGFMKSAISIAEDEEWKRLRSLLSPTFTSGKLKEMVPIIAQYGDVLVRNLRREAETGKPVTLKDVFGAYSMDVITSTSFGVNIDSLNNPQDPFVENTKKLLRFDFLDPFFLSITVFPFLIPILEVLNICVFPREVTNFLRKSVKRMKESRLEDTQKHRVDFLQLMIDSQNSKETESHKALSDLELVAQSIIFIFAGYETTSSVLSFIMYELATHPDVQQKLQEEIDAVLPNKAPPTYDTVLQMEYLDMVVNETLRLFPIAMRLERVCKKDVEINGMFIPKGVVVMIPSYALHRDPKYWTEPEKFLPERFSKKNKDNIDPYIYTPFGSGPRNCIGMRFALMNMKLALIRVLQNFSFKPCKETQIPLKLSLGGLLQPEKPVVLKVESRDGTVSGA

SMILES | Ki (Glucocorticoid receptor [1]) | Ki (Glucocorticoid receptor [3]) | further results
COc1ccccc1C1CCN(c2[nH]c(=O)[nH]c(=O)c2Cc2ccccc2)CC1 | 7.1 nM |  | Ki [2]: 298 nM
Cn1c(=O)[nH]c(N2CCC(O)(Cc3ccccc3)CC2)c(Cc2ccccc2)c1=O | 360 nM |  | 
O=c1[nH]c(N2CCC(c3ccccc3)CC2)c(Cc2cccc(Br)c2)c(=O)[nH]1 | 14 nM | 65 nM | 
N#Cc1ccc(Cc2c(N3CCC(c4ccccc4)CC3)[nH]c(=O)[nH]c2=O)cc1 |  |  | inhibition [4]: 37%
Cn1c(N2CCC(Cc3ccccc3)CC2)c(Cc2ccccc2)c(=O)[nH]c1=O |  |  | inhibition [4]: 11%
COc1cccc(C2CCN(c3[nH]c(=O)[nH]c(=O)c3Cc3ccccc3)CC2)c1 | 9.2 nM | 158 nM | Ki [2]: 1270 nM
Cn1c(=O)[nH]c(N2CCc3ccccc3C2)c(Cc2ccccc2)c1=O |  |  | inhibition [4]: 23%
O=c1[nH]c(N2CCC(Cc3ccccc3)CC2)c(Cc2ccccc2)c(=O)[nH]1 | 19 nM | 150 nM | 
COc1cccc(Cc2c(N3CCC(c4ccccc4)CC3)[nH]c(=O)[nH]c2=O)c1 |  |  | inhibition [4]: 31%
CC1CCN(c2[nH]c(=O)n(C)c(=O)c2Cc2ccccc2)CC1 |  |  | inhibition [4]: 2%
Cn1c(=O)[nH]c(N2CCC(Oc3ccccc3)CC2)c(Cc2ccccc2)c1=O | 78 nM |  | 
N#Cc1cccc(Cc2c(N3CCC(c4ccccc4)CC3)[nH]c(=O)[nH]c2=O)c1 | 37 nM |  | 
Cn1c(=O)[nH]c(N2CCC(Cc3ccccc3)CC2)c(Cc2ccccc2)c1=O | 24 nM | 100 nM | 
O=c1[nH]c(N2CCC(c3ccccc3)CC2)c(Cc2ccccc2Cl)c(=O)[nH]1 | 8.7 nM | 50 nM | Ki [2]: 3490 nM
O=c1[nH]c(N2CCC(c3ccccc3)CC2)c(Cc2ccc(Cl)cc2)c(=O)[nH]1 | 31 nM | 260 nM | 
CC(=O)Nc1ccc(C2CCN(c3[nH]c(=O)[nH]c(=O)c3Cc3ccccc3)CC2)cc1 | 46 nM |  | 
COc1ccc(C2CCN(c3[nH]c(=O)[nH]c(=O)c3Cc3ccccc3)CC2)cc1 | 45 nM |  | 
CC(=O)Nc1cccc(C2CCN(c3[nH]c(=O)[nH]c(=O)c3Cc3ccccc3)CC2)c1 |  |  | inhibition [4]: 11%
Cn1c(=O)[nH]c(N2CCC(c3ccccc3)CC2)c(Cc2ccccc2)c1=O | 20 nM | 190 nM | 
O=c1[nH]c(N2CCC(c3ccccc3)CC2)c(Cc2cccc(Cl)c2)c(=O)[nH]1 | 9.1 nM | 96 nM | Ki (Progesterone receptor): 7050 nM
Cn1c(=O)[nH]c(N2CCC(Cc3ccccc3)CC2)c(Cc2ccccc2Br)c1=O | 33 nM | 300 nM | 
O=c1[nH]c(N2CCC(c3cccc(Cl)c3)CC2)c(Cc2ccccc2)c(=O)[nH]1 |  |  | Ki [2]: 527 nM
Cn1c(=O)[nH]c(N2CCC(O)CC2)c(Cc2cccc(C(F)(F)F)c2)c1=O | 4500 nM |  | 
Cn1c(=O)[nH]c(N2CCC(CCCc3ccccc3)CC2)c(Cc2ccccc2)c1=O |  |  | inhibition [4]: 18%
O=c1[nH]c(N2CCC(c3ccccc3)CC2)c(Cc2ccccc2)c(=O)[nH]1 | 8.1 nM | 93 nM | remaining at 0.5 h [5]: 94%; Cp (Plasma): 178 ng/mL; inhibition at 1 µM (CYP3A4): 25%; Cmax [6]: 143 ng/mL; AUC [7]: 600 ng·h/mL; Ki [2]: 930 nM; Drug uptake (Brain): 45 ng/g
